Patent publication US20190151351A1, “REGULATORS OF ANAPLASTIC LYMPHOMA KINASE AND USES THEREOF” (Celldex Therapeutics, Inc., priority 2014, published 2019)

Key:
ALK [1] = assay: Western blot of ALK and AKT phosphorylation in NB1 neuroblastoma cells (heparin dose response, other glycosaminoglycans); type: cell-based; details: heparin 0-100 μg/mL, other glycosaminoglycans at 10 μg/mL
Method: NB1 neuroblastoma cells were treated with increasing doses of heparin (0, 0.001, 0.01, 0.1, 1, 10, 100 μg/mL heparin), and phosphorylation of ALK and AKT was monitored by Western blot analysis. Various glycosaminoglycans at 10 μg/mL were also assessed for their ability to activate ALK. An ALK-agonistic mAb was used as a positive control for pALK and pAKT.

ALK [2] = assay: SOS inhibition of heparin-induced phosphorylation in NB1 neuroblastoma cells; type: cell-based; details: SOS 0-10 mg/mL along with 10 μg/mL heparin
Method: FIG. 4: Heparin induced activation of ALK is inhibited by sucrose-octasulfate (SOS).
NB1 neuroblastoma cells were treated with increasing doses of SOS (0, 0.001, 0.01, 0.1, 1, and 10 mg/mL) along with 10 μg/mL of heparin.

[3] = target: FL-ECD binding to heparin; assay: SPR competition: inhibition of FL-ECD binding to heparin surface
Method: FIG. 8: Sucrose octasulfate (SOS) inhibits ALK binding to heparin in a dose-dependent manner, as measured by SPR. A titration of SOS was pre-incubated with 350 nM of FL-ECD. These complexes were then injected over the heparin surface.
These complexes were then injected over the heparin surface. […] In addition, the IC50 and inhibition constant values indicate a high degree of specificity for the interaction between heparin and ALK.
A BIACORE™ T100 instrument was used at 25° C. using 25 mM Hepes, 300 mM NaCl, 10% Glycerol, pH 7.4. All reagents were dialyzed with this buffer prior to use. Heparin-biotin (Sigma) sold as ≥97% pure was further purified using PD-10 pre-packed columns (GE-Healthcare) to remove free biotin in solution. Heparin-biotin was then immobilized on an assembled NeutrAvidin surface (amine coupled on a CM4 Series-S Biacore chip): three surfaces were produced with different concentrations of immobilized heparin by varying contact time from 48 to 240 s, and excess ligand was removed. Due to the heterogeneous nature of heparins, the surface was a combination of many chain lengths of heparin. Three-fold dilutions of FL-ECD and ΔN-ECD were injected sequentially over a reference surface without heparin and three heparin surfaces. The surface was regenerated between cycles with 2.5 M NaCl, 5 mM Acetic Acid, pH 4.5. For the SOS competition assay, serial dilutions of SOS were pre-incubated with 0.350 μM FL-ECD and then injected over the chip. Data were analyzed using the BiaCore T100 software.

ALK [4] = assay: Western blot of ALK and MAPK phosphorylation in NB1 neuroblastoma cells; type: cell-based; details: heparin 10 μg/mL
Method: FIG. 2: Heparin, but neither PTN or MK, induces ALK tyrosine phosphorylation. […] An agonistic anti-ALK monoclonal antibody was used as a positive control for activation of ALK and MAPK.
NB1 neuroblastoma cells were treated with heparin (Hep), pleiotrophin (PTN), and midkine (MK) to determine the influence of each on ALK phosphorylation. […] An agonistic anti-ALK monoclonal antibody was used as a positive control for activation of ALK and MAPK.
Target sequence in this assay (Q9UM73 19-222 limits assumed): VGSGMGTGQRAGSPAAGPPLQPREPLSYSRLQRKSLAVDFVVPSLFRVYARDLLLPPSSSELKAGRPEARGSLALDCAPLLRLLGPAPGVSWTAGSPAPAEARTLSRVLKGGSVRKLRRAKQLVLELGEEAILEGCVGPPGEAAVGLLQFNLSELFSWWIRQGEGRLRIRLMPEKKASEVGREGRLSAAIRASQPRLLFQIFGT

Molecule: Dextran sulfate
- phosphorylation of ALK and AKT (ALK [1]): induce phosphorylation of ALK and AKT

Molecule: O=S(=O)(O)OC[C@H]1O[C@@](COS(=O)(=O)O)(O[C@H]2O[C@H](COS(=O)(=O)O)[C@@H](OS(=O)(=O)O)[C@H](OS(=O)(=O)O)[C@H]2OS(=O)(=O)O)[C@@H](OS(=O)(=O)O)[C@@H]1OS(=O)(=O)O [SOS, Sucrose-octasulfate]
- inhibition of heparin-induced phosphorylation of ALK, AKT and MAPK (ALK [2]): capable of inhibiting heparin-induced phosphorylation of ALK, AKT, and MAPK in a dose dependent manner
- Ki ([3]; SPR SOS competition with 350 nM FL-ECD, read-out: inhibition constant (Ki)): 2250 nM
- IC50 ([3]; SPR, SOS pre-incubated with 350 nM FL-ECD, Rmax values): 6500 nM
- Kd ([3]; calculated using the Cheng-Prusoff equation, read-out: KD for SOS/FL-ECD binding): 2250 nM

B1: PTN: secreted protein Pleiotrophin, proposed as physiological ALK ligand (protein)
chain: GKKEKPEKKVKKSDCGEWQWSVCVPTSGDCGLGTREGTRTGAECKQTMKTQRCKIPCNWKKQFGAECKYQFQAWGECDLNTALKTRTGSLKRALHNAECQKTVTISKPCGKLTKPKPQAESKKKKKEGKKQEKMLD
- ALK (tyrosine) phosphorylation (ALK [4]): neither PTN nor MK influence ALK phosphorylation

B2: MK: secreted protein Midkine, proposed as physiological ALK ligand (protein)
chain: VAKKKDKVKKGGPGSECAEWAWGPCTPSSKDCGVGFREGTCGAQTQRIRCRVPCNWKKEFGADCKYKFENWGACDGGTGTKVRQGTLKKARYNAQCQETIRVTKPCTPKTKAKAKAKKGKGKD
- ALK (tyrosine) phosphorylation (ALK [4]): neither PTN nor MK influence ALK phosphorylation
